{"source": "patent US20200171034A1", "about": "“Methods Of Treating Follicular Lymphoma” (Janssen Biotech, Inc., priority 2018, published 2020)", "tested_on": "relapsed/refractory (R/R) follicular lymphoma (FL)", "experiment": "DAWN study (NCT01779791): phase 2, single-arm ibrutinib monotherapy", "format": "in vivo, humans", "settings": "patients with R/R FL, ibrutinib 560 mg once daily", "source_text": "Detailed methodology for the DAWN trial is published in Gopal A K, et al. J Clin Oncol. 2018; 36:2405-2412. […] The primary end point was overall response rate (ORR=complete response [CR]+partial response [PR]), assessed by an independent review committee using the International Working Group Revised Response Criteria for Malignant Lymphoma.", "data": [{"compound": "C=CC(=O)N1CCC[C@@H](n2nc(-c3ccc(Oc4ccccc4)cc3)c3c(N)ncnc32)C1", "note": "[ibrutinib, Ibrutinib]", "values": [{"measurement": "duration of response (median) in responders", "result": 19.4, "unit": "months"}, {"measurement": "overall response rate (ORR = complete response + partial response)", "setting": "independent review committee, 95% CI 13.7-29.7", "result": 20.9, "unit": "%"}]}]}
